Results: patent publication US11738062B2, “Herbal medicine extracts and uses and methods of preparation thereof” (ALPHA OASIS LLC, priority 2018, dated 2023)

Tested on: collagen-induced arthritis DBA/1J mouse model
Test: murine model of collagen-induced arthritis, Arthritic Index (AI) scoring
Assay type: in vivo
Settings: #4 and #10 100 μL topical patch, ENBREL 3 mg/kg subcutaneous

## ENBREL®
14 days of daily treatment
  rate of disease progression (overall arthritis severity, FIG. 2): swiftly arrested
After 14 days of daily treatment, compared to Group 2 (diseased, vegetable oil)
  reduction in arthritis severity score (AI): 71%
